Reference: patent US5478807A, “Use of relaxin in the treatment of bradycardia” (Genentech, Inc., priority 1992, dated 1995)
“And” between values parts separate entries of the source, which are not always exact repeats. Identical values can stand only once.

Experiments:
[1] = tested on: primary human uterine cell line; test: cAMP bioassay in primary human uterine cell line; format: cell-based
Description: The phosphorylated relaxin was assayed for its ability to increase cAMP levels in a primary human uterine cell line. The procedure of Kramer et al. [Kramer et al., In Vitro Cell, Dev, Biol. 26, 647-656 (1990)] was modified and carried out as follows: human uterine cells at passage 15-22 were grown to confluency in Ham's F12/DMEM (1/1, v/v) medium supplemented with 10% heat-inactivated newborn calf serum, 100 unites/ml penicillin, 100 μg/ml streptomycin, 2 mM glutamine and 24 mMHEPES, pH 7.4. Cells were plated into 6-well culture plates at 10^5 cells/well and incubated overnight at 37° C. and 5% CO2 in air. The cells (at 60-80% confluency) were then washed twice with F12/DMEM-24 mMHEPES, pH 7.4 (buffer B) at room temp. […] Aliquots of the extracts were then neutralized with 0.1 N NaOH and cAMP levels were measured in a radioimmunoassay. The assay was based on the competition between cAMP and a fixed quantity of ^125 I-labeled cAMP (Du Pont) for binding to a goat anti-cAMP antibody (Cambridge). […] The radioactivity in the pellet was measured in a gamma counter, and the amount of cAMP in the samples was determined by comparison with a standard cAMP curve. A relaxin standard curve was constructed in which the cAMP concentrations (pmol/ml) determined in the radioimmunoassay were plotted as a function of stimulating relaxin concentrations (ng/ml). […]

rat isolated heart = test: Chronotropy and inotropy in Langendorff rat isolated heart; conditions: for maximum beating rate: 83 pMol
Description: Male Sprague-Dawley rats weighing 300-350 g (Charles River, Portage, Ind., USA) were anesthetized with 60 mg/kg pentobarbital sodium (Fort Dodge Laboratories, Inc., Fort Dodge, Iowa, USA) intraperitoneally. Following thoracotomy, the hearts were removed and placed into 4° C. […] Any associated lung and thymic tissue were trimmed off and the ascending aorta cannulated. The heart was then perfused at 10 ml/min with Krebs-Henseleit solution at 37° C. The perfusion pressure was constantly monitored. A small incision was made in the left atrium and a water-filled balloon (Hugo Sachs Electronik, March-Hugstetten, Germany) connected to a pressure transducer (Gould Electronics, Valley View, Ohio, USA) was placed into the left ventricle for the measurement of left ventricular developed pressure (LVDP). From this pressure, recording heart rate was electronically derived on a Grass polygraph (Quincy, Mass., USA).
In six experiments, after a 15-20 minutes stabilization period, the atria were removed. The heart rate was then allowed to stabilize at its new rate before the administration of relaxin. In three experiments, the atria were left intact.
Relaxin was administered as 50 μl bolus injections into the perfusion fluid immediately prior to entering the heart. Cumulative dose-response curves were constructed using human recombinant H2 relaxin (Genentech, Inc. South San Francisco, Calif., USA). […] Serial dilutions of both drugs were made using 0.9% (w/v) saline solution.
Statistical significance was determined by a two-tailed Student's unpaired t-test and P<0.005 was taken as significant.

pubic symphysis = test: Mouse pubic symphysis assay; conditions: in vivo
Description: The concentration of relaxin was determined by amino acid analysis.

[2] = tested on: rat isolated atrial preparations; conditions: cited from earlier work
left atrium = test: Left atrial contraction, isolated electrically paced left atrium; set-up: species or system rat; conditions: for left atrium contractile force % Δ, mean (X): mean of four left atria; for left atrium contractile force % Δ: single experiment
Description: Krebs-Henseleit solution was prepared with the following composition (in millimoles): NaCl 118; KCl 4.7; MgSO4 1.64; NaHCO3 24.88; KH2 PO4 1.18; d-glucose 11.1; bubbled with 95% O2 /5% CO2; CaCl2 2.52.
Human (H2) relaxin (hRLx-2, 1.5 mg/ml; Genentech) was diluted fresh daily to desired concentrations (500:1; 5000:1; 50000:1) in Krebs-Henseleit solution.
Male Wistar rats (Charles River) weighing 475-525 g each, were anesthetized with sodium pentobarbital (60 mg/kg). After thoracotomy, the heart was removed rapidly and placed in cold (4° C.) Krebs-Henseleit solution until spontaneous contractions ceased. The right and left atria were excised.
Tissue was bathed in an organ chamber holding 42 ml Krebs-Henseleit solution that was aerated with 95% O2 /5% CO2 and heated to 37° C. with a temperature controlled water jacket. Tissue contractions were measured with force-displacement transducers (Grass FT 0.3) and recorded on chart paper (Grass moled 79 polygraph). The rates of contractions were determined with a cardiotachometer (Grass). Electrical stimulation of tissue was induced through bipolar clip electrodes connected to a stimulator through a stimulus isolation unit (Grass model S48).
A stainless steel clip was attached to the distal end of the left atrium and the proximal end was attached to a bipolar electrode. The electrode assembly was secured within the organ chamber and the upper clip was attached to the force-displacement transducer. The position of the transducer was adjusted to yield 1.0 g resting tension. The left atrium was stimulated at 3Hz at 1.5×threshold. The duration (3 msec) and intensity of the pulses (1.5-3.0 Volts) were kept constant throughout an experiment.
In all experiments the atria were allowed to stabilize for 30 minutes prior to addition of drugs. […] Thus, cumulative dose-response curves were generated. At 10 minute intervals, relaxin was added to each organ chamber to obtain bath concentrations of 100 pg/ml, 300 pg/ml, 1 ng/ml, 3 ng/ml, 10 ng/ml and 30 ng/ml.
Measurement of contraction rate and force of contraction following each dose of relaxin were obtained after responses reached a steady state. Rate was determined directly from the output of the cardiotachometer. Force of contraction was measured as the magnitude of the contractile twitches. In order to adjust for variations between tissues, data are expressed as percent changes from pre-drug values, as means±standard errors. Measurements of rate were obtained in seven right atria; measurement of contractile force were obtained in four left atria.

[3] = Intravenous injection of relaxin, earlier experiments; format: in vivo

relaxin
biological activity [1]: biologically active | transient increases in coronary perfusion pressure (rat isolated heart): not seen | effect on LVDP (rat isolated heart; atria removed (LVDP 143±9 mmHg), 0.83 pMol): significantly reduced the LVDP to control levels | maximum beating rate (rat isolated heart; atria removed, basal 139±15 bpm): 268±7 bpm | maximum beating rate (rat isolated heart; intact heart preparations, basal 270±7 bpm): 412±18 bpm | inotropic effect (rat isolated heart; isolated heart preparations): no positive inotropic effects | duration of chronotropic effect (rat isolated heart; relaxin: single bolus administration of 830 pMol): up to two hours | biological activity (pubic symphysis): biologically active | chronotropic and inotropic effects [2]: positive chronotropic and inotropic effects | left atrium contractile force % Δ, mean (X) (left atrium; 100 pg): -6% | left atrium contractile force % Δ (left atrium; 100 pg, change from pre-drug value): -12% and -5% and -4% and -3% | left atrium contractile force % Δ, mean (X) (left atrium; 300 pg): -9.5% | left atrium contractile force % Δ, mean (X) (left atrium; 1 ng): 1.0% | left atrium contractile force % Δ, mean (X) (left atrium; 3 ng): 14.3% | left atrium contractile force % Δ, mean (X) (left atrium; 10 ng): 30% | left atrium contractile force % Δ (left atrium; 10 ng): 22% and 38% and 40% and 20% | left atrium contractile force % Δ, mean (X) (left atrium; 30 ng): 37.8% | peak decrease in contractile force (left atrium; at 300 pg/ml): 10% | peak increase in contractile force (left atrium; at 30 ng/ml): 38% | point of half maximal increase in contractile force (left atrium; left atrium): about 4.8 ng/ml | heart rate [3]: small but consistent increase in heart rate | systolic and diastolic pressure [3]: decrease in systolic and diastolic pressure
